# Measured values published in ChEMBL document CHEMBL1135216, “New 2-(1-adamantylcarbonyl)pyridine and 1-acetyladamantane thiosemicarbazones-thiocarbonohydrazones: cell growth inhibitory, antiviral and antimicrobial activity evaluation” (Bioorg Med Chem Lett, 2002).
# Tests used:
# Vero [1] = assay: Tested for antiviral activity against parainfluenza virus in african green monkey kidney cell (Vero); format: functional; conditions: Chlorocebus sabaeus
# MT4 [2] = assay: Tested for effective concentration required to protect MT-4 cells against the cytopathicity of HIV-2(ROD); format: functional, cell-based; conditions: Homo sapiens
# HeLa [3] = assay: Tested for cytotoxic activity in human epithelial cell line (HeLa); format: functional
# [4] = system: Staphylococcus epidermidis; assay: Tested for the antimicrobial activity against Staphylococcus epidermidis ATCC 12228; format: functional
# HEL [5] = assay: Tested for antiviral activity against thymidine kinase wild type Varicella zoster virus in human embryonic lung fibroblast; format: functional
# E6SM [6] = assay: The compound was tested for antiviral activity against VSV-virus in human epithelial cells; format: functional
# K562 [7] = assay: Tested for the inhibitory concentration against cell growth of human leukemic cell line K562; format: functional
# HuT78 [8] = assay: Tested for the inhibitory concentration against cell growth of human leukemic cell line HuT78; format: functional
# E6SM [9] = assay: Tested for antiviral activity against herpes simplex virus type 1(KOS) in E6SM cell line(human embryonic skin-muscle fibroblasts); format: functional
# HeLa [10] = assay: Tested for antiviral activity against coxsackie-B4 virus in human epithelial cell line; format: functional
# K562 [11] = assay: Tested for the concentration required to reduce the viability of leukemia cells by 50% against cell growth of K562 chronic myeloid leukemia using MTT assay; format: functional; conditions: Homo sapiens, read-out: LC50 (the source's name)
# RPMI-8226 [12] = assay: Tested for the inhibitory concentration against cell growth of human leukemic cell line RPMI8226; format: functional
# E6SM [13] = assay: Tested for antiviral activity against thymidine kinase-deficient (TK-HSV-2G) virus in E6SM cell line(human embryonic skin-muscle fibroblasts)
# Staphylococcus hominis = assay: Tested for the antimicrobial activity against Staphylococcus hominis ATCC 27844; format: functional
# HL-60 [14] = assay: Tested for the inhibitory concentration against cell growth of HL60 acute myeloid leukemia using MTT assay; format: functional; conditions: Homo sapiens
# Vero [15] = assay: Tested for cytotoxic activity in African green monkey kidney cells (Vero); format: functional; conditions: Chlorocebus sabaeus
# RPMI-8226 [16] = assay: Tested for the concentration required to reduce the viability of leukemia cells by 50% against cell growth of RPMI8226 multiple myeloma using MTT assay; format: functional; conditions: Homo sapiens, read-out: LC50 (the source's name)
# HL-60 [17] = assay: Tested for the inhibitory concentration against cell growth of human leukemic cell line HL60; format: functional
# E6SM [18] = assay: Tested for antiviral activity against vaccinia virus in human embryonic skin muscle fibroblast; format: functional; conditions: Muscle tissue
# Staphylococcus aureus = assay: Tested for the antimicrobial activity against Staphylococcus aureus ATCC 6538; format: functional
# E6SM [19] = assay: Antiviral activity against thymidine kinase-deficient (TK-HSV-1)virus in E6SM cell line(human embryonic skin-muscle fibroblasts); format: functional
# MOLT-4 [20] = assay: Tested for the concentration required to reduce the viability of leukemia cells by 50% against cell growth of T cell leukemia cell line MOLT-4 using MTT assay; format: functional; conditions: Homo sapiens
# MOLT-4 [21] = assay: Tested for the inhibitory concentration against cell growth of human leukemic cell line MOLT-4; format: functional
# HEL [22] = assay: Tested for antiviral activity against human cytomegalovirus (AD-169) in human embryonic lung fibroblasts; format: functional
# E6SM [23] = assay: Tested for antiviral activity against VSV-virus in human embryonic skin muscle fibroblasts; format: functional; conditions: Muscle tissue
# MT4 [24] = assay: Tested for cytotoxic concentration required to reduce the viability of MT-4 cells by 50%; format: functional, cell-based; conditions: Homo sapiens, read-out: EC50 (the source's name)
# Vero [25] = assay: Tested for antiviral activity against Sindbis virus in African green monkey kidney cell (Vero); format: functional; conditions: Chlorocebus sabaeus
# RPMI-8226 [26] = assay: Tested for the inhibitory concentration against cell growth of […] multiple myeloma using MTT assay; format: functional; conditions: Homo sapiens
# CCRF-CEM [27] = assay: Tested for the inhibitory concentration against cell growth of human leukemic cell line CCRF-CEM; format: functional
# MT4 [28] = assay: Tested for effective concentration required to protect MT-4 cells against the cytopathicity of HIV-1(IIIB); format: functional; conditions: Homo sapiens, read-out: LC50 (the source's name)
# HuT78 [29] = assay: Tested for the inhibitory concentration against cell growth of HuT78 T lymphoma using MTT assay; format: functional; conditions: Homo sapiens
# Vero [30] = assay: Tested for antiviral activity against Reo-1 virus in African green monkey kidney cell (Vero); format: functional; conditions: Chlorocebus sabaeus
# MOLT-4 [31] = assay: Tested for the inhibitory concentration against cell growth of Tcell leukemic cell line MOLT-4 using MTT assay; format: functional; conditions: Homo sapiens
# K562 [32] = assay: Tested for the inhibitory concentration against cell growth of K562 chronic myeloid leukemia using MTT assay; format: functional; conditions: Homo sapiens
# CCRF-CEM [33] = assay: Tested for the concentration required to reduce the viability of leukemia cells by 50% against cell growth of T cell leukemia cell line CCRF-CEM using MTT assay; format: functional; conditions: Homo sapiens
# Vero [34] = assay: Tested for antiviral activity against Punta toro virus in African green monkey kidney cell (Vero); format: functional; conditions: Chlorocebus sabaeus
# HL-60 [35] = assay: Tested for the concentration required to reduce the viability of leukemia cells by 50% against cell growth of HL60 acute myeloid leukemia using MTT assay; format: functional; conditions: Homo sapiens, read-out: LC50 (the source's name)
# HEL [36] = assay: Tested for antiviral activity against thymidine kinase deficient Varicella zoster virus in human embryonic lung fibroblasts; format: functional
# Escherichia coli = assay: Tested for the antimicrobial activity against Escherichia coli ATCC 25922; format: functional
# Klebsiella pneumoniae = assay: Tested for the antimicrobial activity against Klebsiella pneumoniae ATCC 13883; format: functional
# Vero [37] = assay: Tested for antiviral activity against coxsackie B-4 virus in African green monkey kidney cell (Vero); format: functional; conditions: Chlorocebus sabaeus
# CCRF-CEM [38] = assay: Tested for the inhibitory concentration against cell growth of Tcell leukemic cell line CCRF-CEM using MTT assay; format: functional; conditions: Homo sapiens
# HuT78 [39] = assay: Tested for the concentration required to reduce the viability of leukemia cells by 50% against cell growth of HuT78 T lymphoma using MTT assay; format: functional; conditions: Homo sapiens
# HEL [40] = assay: Tested for cytotoxic activity in human embryonic lung fibroblast (HEL); format: functional
# E6SM [41] = assay: Tested for cytotoxic activity in human embryonic skin muscle fibroblast (E6SM); format: functional; conditions: Muscle tissue
smiles,measurement,setting,value
S=C(N/N=C(/c1ccccn1)C12CC3CC(CC(C3)C1)C2)NNC(=S)c1ccc(Cl)cc1Cl,MIC,Vero [1],> 3.2 µg/mL
same,EC50,MT4 [2],> 3 µM
same,MCC,HeLa [3],16 µg/mL
same,MIC,[4],117 µg/mL
same,MIC,HEL [5],> 2 µg/mL
same,MIC,E6SM [6],> 16 µg/mL
same,GI50,K562 [7],100 µM
same,GI50,HuT78 [8],23 µM
same,MIC,E6SM [9],> 16 µg/mL
same,MIC,HeLa [10],> 3.2 µg/mL
same,CC50,K562 [11],100 µM
same,GI50,RPMI-8226 [12],4.6 µM
same,MIC,E6SM [13],> 3.2 µg/mL
same,MIC,Staphylococcus hominis,117 µg/mL
same,TGI,HL-60 [14],7 µM
same,MCC,Vero [15],16 µg/mL
same,CC50,RPMI-8226 [16],100 µM
same,GI50,HL-60 [17],3.6 µM
same,MIC,E6SM [18],> 16 µg/mL
same,MIC,Staphylococcus aureus,117 µg/mL
same,MIC,E6SM [19],> 16 µg/mL
same,TGI,MOLT-4 [20],100 µM
same,GI50,MOLT-4 [21],31.4 µM
same,MIC,HEL [22],> 2 µg/mL
same,MIC,E6SM [23],> 16 µg/mL
same,CC50,MT4 [24],2.6 µM
same,MIC,Vero [25],> 3.2 µg/mL
same,TGI,RPMI-8226 [26],29.5 µM
same,GI50,CCRF-CEM [27],66.3 µM
same,EC50,MT4 [28],> 3 µM
same,TGI,HuT78 [29],81 µM
same,MIC,Vero [30],> 3.2 µg/mL
same,TGI,MOLT-4 [31],100 µM
same,TGI,K562 [32],100 µM
same,TGI,CCRF-CEM [33],100 µM
same,MIC,Vero [34],> 3.2 µg/mL
same,CC50,HL-60 [35],31.9 µM
same,MIC,HEL [36],> 2 µg/mL
same,MIC,Escherichia coli,> 1880 µg/mL
same,MIC,Klebsiella pneumoniae,> 1880 µg/mL
same,MIC,Vero [37],> 3.2 µg/mL
same,TGI,CCRF-CEM [38],100 µM
same,TGI,HuT78 [39],100 µM
same,MCC,HEL [40],5 µg/mL
same,MCC,E6SM [41],80 µg/mL
